Assay results published in ChEMBL document CHEMBL1909046, “DrugMatrix in vitro pharmacology data”.
pIC50, pKi: −log10 of the molar value.

Columns and labels:
[1] = target: Sigma non-opioid intracellular receptor 1 (Homo sapiens, UniProt Q99720); test: DRUGMATRIX: Sigma1 radioligand binding (ligand: [3H] Haloperidol); assay type: cell membranes, Jurkat, Membrane; conditions: Not Active = under 50% inhibition at 10 µM; for IC50: jurkat
[2] = target: T1, Type-2 angiotensin II receptor (Homo sapiens, UniProt P50052); assay type: cell-based; conditions: cho-k1; further: in other assays of this panel Not Active means under 50% inhibition at 10 µM
T1 sequence (P50052 whole entry): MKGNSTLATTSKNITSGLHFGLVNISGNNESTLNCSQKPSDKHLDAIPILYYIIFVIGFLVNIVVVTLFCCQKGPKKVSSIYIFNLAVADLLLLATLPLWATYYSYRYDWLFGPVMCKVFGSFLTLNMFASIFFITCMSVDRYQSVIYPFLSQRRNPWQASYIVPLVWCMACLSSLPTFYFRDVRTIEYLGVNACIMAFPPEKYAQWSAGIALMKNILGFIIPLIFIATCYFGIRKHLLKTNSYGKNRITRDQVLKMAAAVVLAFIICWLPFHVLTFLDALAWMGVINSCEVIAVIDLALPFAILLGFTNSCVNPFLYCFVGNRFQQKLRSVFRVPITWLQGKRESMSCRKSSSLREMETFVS

[3] = DRUGMATRIX: Sodium/nucleoside co-transporter radioligand binding (ligand: nitrobenzylthioinosine); assay type: cell membranes, Cavia porcellus, Dunkin-Hartley, Cerebral cortex, Membrane; conditions: Not Active = under 50% inhibition at 10 µM
D(4) dopamine receptor = target: T2, D(4) dopamine receptor (Homo sapiens, UniProt P21917); test: DRUGMATRIX: Dopamine D4.2 radioligand binding (ligand: [3H] Spiperone); assay type: cell membranes, CHO-K1, Membrane; conditions: cho-k1; Not Active = under 50% inhibition at 10 µM
T2 sequence (P21917 whole entry): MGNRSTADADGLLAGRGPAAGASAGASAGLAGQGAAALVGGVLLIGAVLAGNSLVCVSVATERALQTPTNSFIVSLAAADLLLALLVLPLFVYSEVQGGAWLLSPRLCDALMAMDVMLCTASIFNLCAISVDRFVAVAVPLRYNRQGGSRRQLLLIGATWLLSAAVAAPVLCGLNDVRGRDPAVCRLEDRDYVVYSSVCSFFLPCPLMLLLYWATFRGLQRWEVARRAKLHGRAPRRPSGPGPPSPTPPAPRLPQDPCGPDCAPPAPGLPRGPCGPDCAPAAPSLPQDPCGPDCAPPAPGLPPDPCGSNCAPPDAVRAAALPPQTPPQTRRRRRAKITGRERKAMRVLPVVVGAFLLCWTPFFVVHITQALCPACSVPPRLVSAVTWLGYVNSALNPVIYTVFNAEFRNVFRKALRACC

Glycine receptor = Glycine receptor (Rattus norvegicus, UniProt P22771+P24524+P07727+P20781); assay type: cell membranes, Wistar, Spinal cord, Membrane; further: in other assays of this panel Not Active means under 50% inhibition at 10 µM
B2 bradykinin receptor = target: T3, B2 bradykinin receptor (Homo sapiens, UniProt P30411); assay type: cell membranes, Membrane; conditions: chem-1; further: in other assays of this panel Not Active means under 50% inhibition at 10 µM
T3 sequence (P30411 whole entry): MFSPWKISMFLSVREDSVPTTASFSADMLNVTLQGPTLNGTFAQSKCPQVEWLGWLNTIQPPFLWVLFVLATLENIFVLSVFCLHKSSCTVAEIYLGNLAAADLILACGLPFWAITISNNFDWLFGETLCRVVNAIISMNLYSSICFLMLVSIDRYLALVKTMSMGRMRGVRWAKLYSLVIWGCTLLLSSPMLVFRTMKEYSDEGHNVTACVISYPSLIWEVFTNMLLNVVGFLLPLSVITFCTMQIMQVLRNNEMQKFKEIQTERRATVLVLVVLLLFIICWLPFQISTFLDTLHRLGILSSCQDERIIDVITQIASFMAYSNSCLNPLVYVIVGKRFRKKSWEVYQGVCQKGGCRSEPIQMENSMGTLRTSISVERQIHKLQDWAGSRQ

[4] = DRUGMATRIX: GABAA, Flunitrazepam, Central radioligand binding (ligand: [3H] Flunitrazepam); assay type: cell membranes, Rattus norvegicus, Wistar, Brain, Membrane; conditions: Not Active = under 50% inhibition at 10 µM
Cytochrome P450 2A6 = target: T4, Cytochrome P450 2A6 (Homo sapiens, UniProt P11509); conditions: bti-tn-5b1-4; further: in other assays of this panel Not Active means under 50% inhibition at 10 µM
T4 sequence (P11509 whole entry): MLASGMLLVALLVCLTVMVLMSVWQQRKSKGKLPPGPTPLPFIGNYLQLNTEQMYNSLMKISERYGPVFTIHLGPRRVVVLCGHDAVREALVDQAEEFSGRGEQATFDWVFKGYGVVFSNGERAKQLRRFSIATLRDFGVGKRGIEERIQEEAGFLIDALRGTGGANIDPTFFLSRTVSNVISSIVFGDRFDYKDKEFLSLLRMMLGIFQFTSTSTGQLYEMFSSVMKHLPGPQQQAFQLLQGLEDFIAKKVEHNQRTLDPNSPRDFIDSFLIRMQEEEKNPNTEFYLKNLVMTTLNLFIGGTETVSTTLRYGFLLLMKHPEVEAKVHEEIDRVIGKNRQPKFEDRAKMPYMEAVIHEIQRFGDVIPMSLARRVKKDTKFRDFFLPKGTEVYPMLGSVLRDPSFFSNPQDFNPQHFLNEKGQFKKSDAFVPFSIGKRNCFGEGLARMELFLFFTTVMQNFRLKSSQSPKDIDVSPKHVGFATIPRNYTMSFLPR

[5] = target: T5, Alpha-1D adrenergic receptor (Homo sapiens, UniProt P25100); assay type: cell membranes, HEK293, Membrane; conditions: for IC50: hek293
T5 sequence (P25100 whole entry): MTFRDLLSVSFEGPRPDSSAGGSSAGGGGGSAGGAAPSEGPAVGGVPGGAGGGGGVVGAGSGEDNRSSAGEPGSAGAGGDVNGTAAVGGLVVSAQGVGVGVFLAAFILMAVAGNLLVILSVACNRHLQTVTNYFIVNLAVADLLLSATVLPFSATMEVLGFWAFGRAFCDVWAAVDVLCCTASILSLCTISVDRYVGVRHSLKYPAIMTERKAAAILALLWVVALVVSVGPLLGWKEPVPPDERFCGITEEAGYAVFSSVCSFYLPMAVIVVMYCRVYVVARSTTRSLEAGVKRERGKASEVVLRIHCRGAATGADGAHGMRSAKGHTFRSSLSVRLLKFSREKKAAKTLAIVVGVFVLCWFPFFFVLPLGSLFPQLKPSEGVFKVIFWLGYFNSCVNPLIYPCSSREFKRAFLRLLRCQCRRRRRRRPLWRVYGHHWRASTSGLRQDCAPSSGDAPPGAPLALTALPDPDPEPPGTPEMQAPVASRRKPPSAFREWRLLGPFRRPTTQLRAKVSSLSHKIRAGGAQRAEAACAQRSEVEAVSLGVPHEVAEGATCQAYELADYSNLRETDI

Sigma non-opioid intracellular receptor 1, sequence (Q99720 whole entry): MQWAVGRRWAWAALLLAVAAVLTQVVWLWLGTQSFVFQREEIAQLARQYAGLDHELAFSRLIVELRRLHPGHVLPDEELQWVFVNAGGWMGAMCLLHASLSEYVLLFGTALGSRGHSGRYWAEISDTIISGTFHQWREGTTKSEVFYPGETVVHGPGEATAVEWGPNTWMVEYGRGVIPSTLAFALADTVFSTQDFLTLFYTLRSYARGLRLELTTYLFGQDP

CCOC(=O)[C@H](CCc1ccccc1)N[C@@H](C)C(=O)N1[C@H](C(=O)O)C[C@@H]2CCC[C@@H]21
IC50 [1]: Not Active | IC50 [2]: Not Active | IC50 [3]: Not Active | Ki [3]: Not Active | IC50 (D(4) dopamine receptor): Not Active | IC50 (Glycine receptor): Not Active | IC50 (B2 bradykinin receptor): Not Active | IC50 [4]: Not Active | Ki [4]: Not Active | IC50 (Cytochrome P450 2A6): Not Active | Ki (Cytochrome P450 2A6): Not Active | IC50 [5]: Not Active

CC1(C)[C@H]2CC[C@]1(C)C(=O)C2 [(-)-CAMPHOR]
IC50 [1]: Not Active | IC50 [2]: Not Active | IC50 [3]: Not Active | Ki [3]: Not Active | IC50 (D(4) dopamine receptor): Not Active | IC50 (Glycine receptor): Not Active | IC50 (B2 bradykinin receptor): Not Active | IC50 [4]: Not Active | Ki [4]: Not Active | IC50 (Cytochrome P450 2A6): Not Active | Ki (Cytochrome P450 2A6): Not Active | IC50 [5]: Not Active

CC(C)(C)NCC(O)c1ccc(O)c(CO)c1 (stereo unspecified) [ALBUTEROL]
IC50 [1]: Not Active | IC50 [2]: Not Active | IC50 [3]: Not Active | Ki [3]: Not Active | IC50 (D(4) dopamine receptor): Not Active | IC50 (Glycine receptor): Not Active | IC50 (B2 bradykinin receptor): Not Active | IC50 [4]: Not Active | Ki [4]: Not Active | IC50 (Cytochrome P450 2A6): Not Active | Ki (Cytochrome P450 2A6): Not Active | IC50 [5]: Not Active

Oc1c(I)cc(I)c2cccnc12 [IODOQUINOL]
IC50 [1]: Not Active | IC50 [2]: Not Active | IC50 [3]: Not Active | Ki [3]: Not Active | IC50 (D(4) dopamine receptor): Not Active | IC50 (Glycine receptor): Not Active | IC50 (B2 bradykinin receptor): Not Active | IC50 [4]: Not Active | Ki [4]: Not Active | IC50 (Cytochrome P450 2A6): Not Active | Ki (Cytochrome P450 2A6): Not Active | IC50 [5]: Not Active

NNC(=O)c1ccncc1 [ISONIAZID]
IC50 [1]: Not Active | IC50 [2]: Not Active | IC50 [3]: Not Active | Ki [3]: Not Active | IC50 (D(4) dopamine receptor): Not Active | IC50 (Glycine receptor): Not Active | IC50 (B2 bradykinin receptor): Not Active | IC50 [4]: Not Active | Ki [4]: Not Active | IC50 (Cytochrome P450 2A6): Not Active | Ki (Cytochrome P450 2A6): Not Active | IC50 [5]: Not Active

CC1=C(/C=C/C(C)=C/C=C/C(C)=C\C(=O)O)C(C)(C)CCC1 [ISOTRETINOIN]
IC50 [1]: Not Active | IC50 [2]: Not Active | IC50 [3]: Not Active | Ki [3]: Not Active | IC50 (D(4) dopamine receptor): Not Active | IC50 (Glycine receptor): Not Active | IC50 (B2 bradykinin receptor): Not Active | IC50 [4]: Not Active | Ki [4]: Not Active | IC50 (Cytochrome P450 2A6): Not Active | Ki (Cytochrome P450 2A6): Not Active | IC50 [5]: Not Active

CO[C@@H]1[C@@H](O[C@@H]2O[C@H](C)[C@@H](O[C@H]3C[C@@](C)(O)[C@@H](OC(=O)CC(C)C)[C@H](C)O3)[C@H](N(C)C)[C@H]2O)[C@@H](CC=O)C[C@@H](C)[C@@H](O)/C=C/C=C/C[C@@H](C)OC(=O)C[C@H]1O [KITASAMYCIN]
IC50 [1]: Not Active | IC50 [2]: Not Active | IC50 [3]: Not Active | Ki [3]: Not Active | IC50 (D(4) dopamine receptor): Not Active | IC50 (Glycine receptor): Not Active | IC50 (B2 bradykinin receptor): Not Active | IC50 [4]: Not Active | Ki [4]: Not Active | IC50 (Cytochrome P450 2A6): Not Active | Ki (Cytochrome P450 2A6): Not Active | IC50 [5]: Not Active

CC(CCc1ccccc1)NCC(O)c1ccc(O)c(C(N)=O)c1 (stereo unspecified) [LABETALOL]
pIC50 ([1]; read-out: IC50): 5.74 | pKi ([1]; read-out: Ki): 6.12 | IC50 [2]: Not Active | IC50 [3]: Not Active | Ki [3]: Not Active | IC50 (D(4) dopamine receptor): Not Active | IC50 (Glycine receptor): Not Active | IC50 (B2 bradykinin receptor): Not Active | IC50 [4]: Not Active | Ki [4]: Not Active | IC50 (Cytochrome P450 2A6): Not Active | Ki (Cytochrome P450 2A6): Not Active | pIC50 ([5]; read-out: IC50): 6.28 | pKi ([5]; read-out: Ki): 6.59

Nc1nnc(-c2cccc(Cl)c2Cl)c(N)n1 [LAMOTRIGINE]
IC50 [1]: Not Active | IC50 [2]: Not Active | IC50 [3]: Not Active | Ki [3]: Not Active | IC50 (D(4) dopamine receptor): Not Active | IC50 (Glycine receptor): Not Active | IC50 (B2 bradykinin receptor): Not Active | IC50 [4]: Not Active | Ki [4]: Not Active | IC50 (Cytochrome P450 2A6): Not Active | Ki (Cytochrome P450 2A6): Not Active | IC50 [5]: Not Active

CCC[C@@H]1C[C@@H](C(=O)N[C@@H]([C@H]2O[C@H](SC)[C@H](O)[C@@H](O)[C@H]2O)[C@@H](C)O)N(C)C1 [LINCOMYCIN]
IC50 [1]: Not Active | IC50 [2]: Not Active | IC50 [3]: Not Active | Ki [3]: Not Active | IC50 (D(4) dopamine receptor): Not Active | IC50 (Glycine receptor): Not Active | IC50 (B2 bradykinin receptor): Not Active | IC50 [4]: Not Active | Ki [4]: Not Active | IC50 (Cytochrome P450 2A6): Not Active | Ki (Cytochrome P450 2A6): Not Active | IC50 [5]: Not Active

NCCCC[C@H](N[C@@H](CCc1ccccc1)C(=O)O)C(=O)N1CCC[C@H]1C(=O)O [LISINOPRIL ANHYDROUS]
IC50 [1]: Not Active | IC50 [2]: Not Active | IC50 [3]: Not Active | Ki [3]: Not Active | IC50 (D(4) dopamine receptor): Not Active | IC50 (Glycine receptor): Not Active | IC50 (B2 bradykinin receptor): Not Active | IC50 [4]: Not Active | Ki [4]: Not Active | IC50 (Cytochrome P450 2A6): Not Active | Ki (Cytochrome P450 2A6): Not Active | IC50 [5]: Not Active

COS(C)(=O)=O [METHANESULFONIC ACID METHYL ESTER]
IC50 [1]: Not Active | IC50 [2]: Not Active | IC50 [3]: Not Active | Ki [3]: Not Active | IC50 (D(4) dopamine receptor): Not Active | IC50 (Glycine receptor): Not Active | IC50 (B2 bradykinin receptor): Not Active | IC50 [4]: Not Active | Ki [4]: Not Active | IC50 (Cytochrome P450 2A6): Not Active | Ki (Cytochrome P450 2A6): Not Active | IC50 [5]: Not Active
